Measurements from patent publication US20070037883A1, “Therapeutic compositions” (priority 2003, published 2007).

Assays:
Nox4 mRNA = Nox4 mRNA expression in cultured mouse VSMCs, real-time PCR; type: cell-based; conditions: 500 nmol/L oligonucleotide, 24 h, FIG. 9
Experimental: Mouse VSMCs were plated sparsely onto 96-well ViewPlates (Packard Bioscience) (for superoxide measurements) or onto 35 mm culture dishes (for RNA extraction) such that they were 30-50% confluent at the time of transfection 24 h later. At the time of transfection, cells were washed with serum- and antibiotic free DMEM and were then incubated in serum- and antibiotic-free DMEM containing 8 μL/mL Oligofectamine Transfection Reagent (Invitrogen Life Technologies) complexed with the antisense (0-1000 nmol/L), mismatch (500 nmol/L) or scrambled (560 nmol/L) oligonucleotides. […]
RNA was extracted from cultured and freshly isolated mouse VSMCs, and from freshly isolated whole aortas using RNAwiz (Ambion) according to the manufacturer's protocol. RNA concentrations were determined spectrophotometrically by measuring absorbance at 260 nm. […]
Real-time PCR and the ΔΔCt method were used as previously described to examine mRNA expression of Nox4 and Nox1 relative to a “reference” sample. […] 18S ribosomal RNA was used as the internal standard for each reaction and was detected with commercially available rodent 18S primers and a 5′-VIC-labeled probe (PE Biosystems; Table 7).
Nox4 was amplified in duplex with 18S in PCR mixtures (25 μL final volume) containing 1× TaqMan (registered trademark). […] Reactions were performed and fluorescence monitored in the ABI Prism 7700 Sequence Detector (PE Biosystems).

[1] = biological target: endothelial nitric oxide synthase (Homo sapiens, UniProt P29474); conditions: read-out: IC50, inhibition of endothelial nitric oxide synthase; Stuehr et al. 1991; Wang et al. 1993; cited from earlier work
[2] = biological target: T1, gp91phox-containing NADPH-oxidase in the mouse macrophage cell line J774 (Mus musculus, UniProt Q61093); experiment: NADPH oxidase activity in intact J774 mouse macrophages; type: cell-based; conditions: FIG. 2b
T1 construct: endogenous in cells; host or cells: J774 mouse macrophage cell line (intact cells)
T1 sequence (Q61093 2-570 limits assumed): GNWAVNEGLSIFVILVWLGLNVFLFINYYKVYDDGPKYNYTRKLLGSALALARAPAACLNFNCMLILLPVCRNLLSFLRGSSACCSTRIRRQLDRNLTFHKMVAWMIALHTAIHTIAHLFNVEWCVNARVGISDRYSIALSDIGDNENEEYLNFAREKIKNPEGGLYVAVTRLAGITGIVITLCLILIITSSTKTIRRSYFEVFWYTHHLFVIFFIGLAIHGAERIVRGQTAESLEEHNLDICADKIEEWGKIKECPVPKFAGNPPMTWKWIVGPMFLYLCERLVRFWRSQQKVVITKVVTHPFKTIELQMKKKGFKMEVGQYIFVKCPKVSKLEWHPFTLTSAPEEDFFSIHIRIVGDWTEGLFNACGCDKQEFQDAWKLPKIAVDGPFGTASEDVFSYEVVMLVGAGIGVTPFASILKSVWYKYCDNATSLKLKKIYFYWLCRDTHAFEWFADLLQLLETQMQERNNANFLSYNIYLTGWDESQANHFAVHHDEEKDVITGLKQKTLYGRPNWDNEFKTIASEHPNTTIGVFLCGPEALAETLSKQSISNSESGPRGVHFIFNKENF
T1 sequence (Q61462 1-192 partner): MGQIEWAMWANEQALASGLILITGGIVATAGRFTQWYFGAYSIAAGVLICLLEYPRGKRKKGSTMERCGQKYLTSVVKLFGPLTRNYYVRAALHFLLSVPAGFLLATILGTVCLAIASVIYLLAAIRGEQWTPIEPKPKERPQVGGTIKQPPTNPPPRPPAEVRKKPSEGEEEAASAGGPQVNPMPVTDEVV

Chain of endothelial nitric oxide synthase (P29474 2-1203): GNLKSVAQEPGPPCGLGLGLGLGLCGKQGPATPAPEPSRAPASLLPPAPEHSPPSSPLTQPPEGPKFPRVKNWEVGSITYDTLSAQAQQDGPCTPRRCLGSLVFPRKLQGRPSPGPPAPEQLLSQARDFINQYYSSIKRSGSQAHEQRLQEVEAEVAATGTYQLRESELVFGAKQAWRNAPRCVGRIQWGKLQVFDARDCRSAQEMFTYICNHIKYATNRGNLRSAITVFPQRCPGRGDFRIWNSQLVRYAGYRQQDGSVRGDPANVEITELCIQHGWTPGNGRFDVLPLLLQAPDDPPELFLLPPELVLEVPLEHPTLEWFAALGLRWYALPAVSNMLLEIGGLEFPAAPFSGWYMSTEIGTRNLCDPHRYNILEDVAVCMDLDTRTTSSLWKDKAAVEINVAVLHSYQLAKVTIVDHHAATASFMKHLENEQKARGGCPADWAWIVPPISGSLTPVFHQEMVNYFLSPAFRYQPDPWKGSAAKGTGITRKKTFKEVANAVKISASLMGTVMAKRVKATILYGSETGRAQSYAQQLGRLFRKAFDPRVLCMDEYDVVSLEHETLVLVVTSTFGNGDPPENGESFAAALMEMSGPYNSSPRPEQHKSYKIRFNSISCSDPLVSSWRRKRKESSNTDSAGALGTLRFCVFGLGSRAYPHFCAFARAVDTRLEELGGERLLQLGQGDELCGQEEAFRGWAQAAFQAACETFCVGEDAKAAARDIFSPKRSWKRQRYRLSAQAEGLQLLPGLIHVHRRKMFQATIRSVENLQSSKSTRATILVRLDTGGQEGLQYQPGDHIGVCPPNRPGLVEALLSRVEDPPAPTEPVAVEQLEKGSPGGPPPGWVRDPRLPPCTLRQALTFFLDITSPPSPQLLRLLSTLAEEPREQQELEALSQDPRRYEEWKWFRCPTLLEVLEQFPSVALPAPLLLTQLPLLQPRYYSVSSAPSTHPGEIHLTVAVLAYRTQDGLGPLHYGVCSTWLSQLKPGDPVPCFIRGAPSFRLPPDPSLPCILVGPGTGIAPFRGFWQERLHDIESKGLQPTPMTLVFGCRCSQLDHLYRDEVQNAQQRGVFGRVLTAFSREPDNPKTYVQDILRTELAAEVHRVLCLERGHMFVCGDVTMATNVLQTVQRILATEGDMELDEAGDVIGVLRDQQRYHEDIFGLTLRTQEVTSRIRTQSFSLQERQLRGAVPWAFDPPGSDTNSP

Row | Compound | reduction in Nox4 mRNA expression (Nox4 mRNA) | further results
1 | +13/+33 scrambled: scrambled control oligonucleotide CGTCACGCTCAGCTCACCGT [SEQ ID NO:19], same base composition in random order (chemistry not given here) | no effect | –
2 | c1ccc2c(c1)[I+]c1ccccc1-2 [DPI, diphenyleneiodonium] | – | IC50 [1]: 180 to 300 nM
3 | +13/+33 mismatch: mismatch control oligonucleotide TAGGCCAGCAAGCTCCTACA [SEQ ID NO:18], differs in three base positions (chemistry not given here) | no effect | –
4 | 1-amino-4[[4[[4-chloro-6-[[n-sulfophenyl]amino]-1,3,5-triazin-2-yl]amino]-3-sulfophenyl]amino]-9,10-dihydro-9,10-dioxo-2-anthracene-sulfonic acid wherein n is 3 or 4 [Reactive blue-2] | – | effect on gp91phox-containing NADPH-oxidase in J774 macrophages / phagocytic cells [2]: ineffective
